Reference: PMC6882436 (Journal of Extracellular Vesicles, 2019)

Biological target: T1, eGFP-CD82 (KAI1/CD82) (Homo sapiens, UniProt P27701)
T1 sequence (P27701 1-267): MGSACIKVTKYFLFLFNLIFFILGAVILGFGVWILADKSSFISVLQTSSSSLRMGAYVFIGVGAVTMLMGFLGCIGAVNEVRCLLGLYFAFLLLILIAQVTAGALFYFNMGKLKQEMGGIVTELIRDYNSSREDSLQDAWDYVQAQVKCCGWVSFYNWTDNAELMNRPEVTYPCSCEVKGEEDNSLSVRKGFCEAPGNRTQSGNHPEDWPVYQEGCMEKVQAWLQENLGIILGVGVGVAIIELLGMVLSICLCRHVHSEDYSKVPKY
Assay: microscale thermophoresis, eGFP fluorescence, cell lysate
Type: binding

Kd: 5.89 µM
Compound: CC(C)CCC[C@@H](C)[C@H]1CC[C@H]2[C@@H]3CC=C4C[C@@H](O)CC[C@]4(C)[C@H]3CC[C@]12C [cholesterol]
